According to patent US20130172320A1, “PYRIDO [4,3-B] INDOLE AND PYRIDO [3,4-B] INDOLE DERIVATIVES AND METHODS OF USE” (priority 2010, published 2013):

Assays:
[1] = target: T1, human recombinant serotonin (5-Hydroxytryptamine) 5-HT6 receptor (Homo sapiens, UniProt P50406); experiment: Serotonin 5-HT6 radioligand binding ([3H]LSD); conditions: compound at 0.1 μM; read-out: Percentage inhibition of ligand binding, Serotonin (0.1 μM) 5-HT6
T1 construct: expressed in transfected cells; host or cells: human HeLa cells
Protocol: To evaluate in radioligand binding assays the activity of compounds of the invention, human recombinant serotonin (5-Hydroxytryptamine) 5-HT6 receptor expressed in human HeLa cells (Monsma, F. Jr. et al, Mol. Pharmacol. 43:320, 1993) in a modified Tris-HCl buffer (50 mM Tris-HCl, pH 7.4, 150 mM NaCl, 2 mM Ascorbic Acid, 0.001% BSA) was used. Compounds of the invention were incubated with 1.5 nM [3H]Lysergic acid diethylamide (LSD) for 120 min at 37° C. Non-specific binding was estimated in the presence of 5 μM Serotonin (5-HT). Receptor proteins were filtered and washed, the filters were then counted to determine [3H]LSD specifically bound. Compounds were screened at 1 μM or lower, using 1% DMSO as vehicle. Biochemical assay results are presented as the percent inhibition of specific binding in Table 4.

[2] = target: T2, human recombinant adrenergic α1D receptor (Homo sapiens, UniProt P25100); experiment: Adrenergic α1D radioligand binding ([3H]Prazosin); conditions: compound at 0.1 μM; read-out: Percentage inhibition of ligand binding, Adrenergic (0.1 μM) a1D
T2 construct: expressed in transfected cells; host or cells: human embryonic kidney (HEK-293) cells
T2 sequence (P25100 1-572): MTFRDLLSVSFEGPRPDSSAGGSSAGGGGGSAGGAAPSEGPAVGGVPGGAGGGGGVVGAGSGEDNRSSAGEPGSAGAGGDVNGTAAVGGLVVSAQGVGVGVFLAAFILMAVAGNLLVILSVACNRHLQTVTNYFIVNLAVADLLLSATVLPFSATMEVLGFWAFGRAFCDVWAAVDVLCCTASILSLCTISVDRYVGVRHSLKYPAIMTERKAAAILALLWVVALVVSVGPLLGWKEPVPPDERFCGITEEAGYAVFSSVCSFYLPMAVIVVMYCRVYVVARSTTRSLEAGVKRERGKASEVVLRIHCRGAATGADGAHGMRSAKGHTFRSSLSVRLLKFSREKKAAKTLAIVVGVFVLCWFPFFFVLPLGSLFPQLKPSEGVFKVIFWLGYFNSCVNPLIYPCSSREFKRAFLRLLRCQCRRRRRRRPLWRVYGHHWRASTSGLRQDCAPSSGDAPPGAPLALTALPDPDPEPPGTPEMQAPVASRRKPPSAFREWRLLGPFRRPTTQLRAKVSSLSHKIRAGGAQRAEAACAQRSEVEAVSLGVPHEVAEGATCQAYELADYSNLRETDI
Protocol: To evaluate in radioligand binding assays the activity of compounds of the invention, human recombinant adrenergic α1D receptor expressed in human embryonic kidney (HEK-293) cells (Kenny, B. et al, Br. J. Pharmacol. 115(6):981, 1995) in a 50 mM Tris-HCl buffer, pH 7.4, was used. Compounds of invention were incubated with 0.6 nM [^3H]Prazosin for 60 min at 25° C. Non-specific binding was estimated in the presence of 10 μM phentolamine. Receptor proteins were filtered and washed, the filters were then counted to determine [^3H]Prazosin specifically bound. Compounds were screened at 1 μM or lower, using 1% DMSO as vehicle. Biochemical assay results are presented as the percent inhibition of specific binding in Table 3.

T1 sequence (P50406 whole entry): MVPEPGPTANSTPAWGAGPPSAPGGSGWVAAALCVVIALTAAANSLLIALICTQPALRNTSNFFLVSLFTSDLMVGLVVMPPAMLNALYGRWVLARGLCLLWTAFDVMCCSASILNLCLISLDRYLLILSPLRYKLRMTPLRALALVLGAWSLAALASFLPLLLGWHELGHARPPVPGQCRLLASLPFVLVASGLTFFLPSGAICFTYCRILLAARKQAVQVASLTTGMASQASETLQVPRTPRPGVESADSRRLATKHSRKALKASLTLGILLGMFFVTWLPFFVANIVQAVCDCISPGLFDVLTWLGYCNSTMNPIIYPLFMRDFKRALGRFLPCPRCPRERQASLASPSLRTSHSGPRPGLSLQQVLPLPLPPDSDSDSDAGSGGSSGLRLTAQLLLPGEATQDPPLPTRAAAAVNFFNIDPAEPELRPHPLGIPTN

SMILES	inhibition at 0.1 µM [1]	inhibition at 0.1 µM [2]
C#CCC1(C)CN(C)Cc2c1n(C)c1ccc(C)cc21 (stereo not shown) [Compound 47, 2,4,5,8-tetramethyl-4-(prop-2-ynyl)-2,3,4,5-tetrahydro-1H-pyrido[4,3-b]indole]	14%	10%
Cc1ccc2c(c1)c1c(n2C)C(C)(CCc2nc(-c3ccccc3)cs2)CN(C)C1 (stereo not shown) [Compound 48]	22%	13%
